Source: patent US6730685B1, “Formulation of substituted benzimidazoles” (AstraZeneca AB, priority 1999, dated 2004)
Values after ≈ are worked out from the molar mass of the structure shown.

Experiment: Solubility of omeprazole and omeprazole sodium in water, dichloromethane and polyethylene glycol 400
Type: physicochemical
Method: The solubility of omeprazole (the non-ionised species) has been determined to approximately 0.1 g/l in water and approximately 100 g/l in dichloromethane at room temperature (22° C.). […] Omeprazole sodium is ionised and is therefore much more soluble in water compared with omeprazole and the opposite is applicable in the less polar solvent dichloromethane. The solubility of omeprazole (the non-ionised species) has been determined to approximately 20 g/l in polyethylene glycol 400. This means that the solubility is much better in polyethylene glycol, a less polar solvent, than in water. […] This means that the solubility in polyethylene glycol is much higher for omeprazole sodium than for omeprazole. The high solubility of omeprazole sodium in polyethylene glycol is very favourable regarding the formulation aspects of a parenteral pharmaceutical product.

Solubility in dichloromethane (result in words)	Solubility in polyethylene glycol 400 (result in words)	Solubility in water (result in words)	solubility (22 °C, organic solvent or mixture)	solubility (22 °C, water)	solubility (organic solvent or mixture)	Structure (SMILES)
only slightly soluble	freely soluble	freely soluble	–	–	–	COc1ccc2[n-]c([S+]([O-])Cc3ncc(C)c(OC)c3C)nc2c1.[Na+] (stereo not drawn) [Omeprazole sodium]
–	–	–	~100 mg/mL (≈ 289 mM)	~0.1 mg/mL (≈ 0.289 mM)	~20 mg/mL (≈ 57.9 mM)	COc1ccc2[nH]c([S+]([O-])Cc3ncc(C)c(OC)c3C)nc2c1 (stereo not drawn) [omeprazole]
